Measurements: patent US12516058B2, “Small-molecule compounds for controlling endosomal toll-like receptors and therapeutic agent for autoimmune diseases using same” (priority 2020, dated 2026)
Entries after “also recorded” stand apart in the source; their conditions may differ.

Biological target: T1, TLR3 (Mus musculus, UniProt Q99MB1)
T1 construct: RAW 264.7 cells were pretreated with each candidate compound for 1 hour; endogenous in cells; host or cells: RAW 264.7
T1 sequence (Q99MB1 26-905): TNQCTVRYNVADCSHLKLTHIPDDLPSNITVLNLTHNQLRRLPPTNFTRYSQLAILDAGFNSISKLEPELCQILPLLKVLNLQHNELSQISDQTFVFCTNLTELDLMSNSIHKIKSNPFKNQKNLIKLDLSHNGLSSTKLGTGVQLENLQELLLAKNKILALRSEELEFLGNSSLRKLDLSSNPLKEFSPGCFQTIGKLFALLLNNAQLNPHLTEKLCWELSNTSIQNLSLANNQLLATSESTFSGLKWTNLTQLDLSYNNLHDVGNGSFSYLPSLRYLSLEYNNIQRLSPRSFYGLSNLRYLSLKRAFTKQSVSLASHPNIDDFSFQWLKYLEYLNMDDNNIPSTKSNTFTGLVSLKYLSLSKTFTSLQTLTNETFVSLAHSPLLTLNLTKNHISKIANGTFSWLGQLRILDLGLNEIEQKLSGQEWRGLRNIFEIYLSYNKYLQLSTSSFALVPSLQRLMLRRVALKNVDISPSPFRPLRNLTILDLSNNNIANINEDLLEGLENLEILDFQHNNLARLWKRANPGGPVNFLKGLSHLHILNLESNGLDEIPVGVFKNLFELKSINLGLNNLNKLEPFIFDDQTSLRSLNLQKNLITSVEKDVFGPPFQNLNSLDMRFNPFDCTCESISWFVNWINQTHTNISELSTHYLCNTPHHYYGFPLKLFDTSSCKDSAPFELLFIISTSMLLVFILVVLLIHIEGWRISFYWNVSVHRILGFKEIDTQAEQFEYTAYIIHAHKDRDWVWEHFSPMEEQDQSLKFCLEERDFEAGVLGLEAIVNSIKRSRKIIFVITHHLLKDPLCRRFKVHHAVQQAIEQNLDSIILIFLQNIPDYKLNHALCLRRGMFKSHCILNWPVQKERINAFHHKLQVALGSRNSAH
Test: TNF-α secretion ELISA after TLR3 agonist poly I:C in RAW 264.7 cells
Type: cell-based
Details: SK01, SK16; RAW 264.7 cells, poly I:C 24 h
Procedure: In order to determine the inhibitory activities of the test-ligand, RAW 264.7 cells were pretreated with each candidate compound for 1 hour, then treated with Pam3CSK4 (synthetic triacyl lipopeptide; TLR1/2, Invitrogen), FSL-1 (synthetic diacyl lipoprotein, TLR2/6, 100 ng/ml), lipopolysaccharide (LPS, TLR4, Sigma Aldrich), imiquimod (IMQ, TLR7, Invitrogen), and ODN2395 (type C CpG repeat motif DNA oligo(5′-[…]-3), TLR9, Bioneer) ligand for 4 hours, and treated with poly I:C (I:C repeat motif double-stranded RNA, TLR3, Invitrogen) and TL8-506 (TLR8, Invitrogen) showing delayed reactivity for 24 hours. After activation of TLR, the supernatant was diluted in an appropriate ratio so as to measure within the standard dose range, transferred to a pre-coated 96-well assay plate, and then treated with mouse TNF-alpha secretion level in accordance with the manufacturer's instructions using a mouse-TNF-alpha ELISA-kit (Invitrogen).
In order to determine the inhibitory activities of SK41, SK50, SK58 and SK64 on various TLR signaling pathways, RAW 264.7 cells were cultured along with each compound and then stimulated with different TLR agonists. The TLR agonists used herein were Pam3CSK4 (TLR1/2), FSL-1 (TLR2/6), LPS (TLR4) and FLA-ST (TLR5) as cell surface TLRs, and poly I:C (TLR3) and TL8-506 (TLR8) as endosomal TLRs.

SMILES | inhibition of the function of endosomal TLR3
Cc1c(C)n(CCN(C)C)c2nc3c(c(N)c12)CCCCC3 [SK01, 1-(2-(dimethylamino)ethyl)-2,3-dimethyl-1,5,6,7,8,9-hexahydrocyclohepta[b]pyrrolo[3,2-e]pyridin-4-amine] | specifically inhibit
Cc1c(C)n(CCCN(C)C)c2nc3c(c(N)c12)CCCCC3 [SK16, 1-(3-(dimethylamino)propyl)-2,3-dimethyl-1,5,6,7,8,9-hexahydrocyclohepta[b]pyrrolo[3,2-e]pyridin-4-amine] | specifically inhibit

Same assay, conditions: SK41, SK50, SK58, SK64; poly I:C

SMILES | inhibitory activity against endosomal TLR3 (TNF-α secretion)
Cc1cc2c(N)c3c(nc2n1CCCN(C)C)CCCCCC3 [SK41, 1-(3-(dimethylamino)propyl)-2-methyl-5,6,7,8,9,10-hexahydro-1H-cycloocta[b]pyrrolo[3,2-e]pyridin-4-amine] | strong inhibitory activity; also recorded: specific inhibitory activities
COc1ccc2c(c1)c1c(N)c3c(nc1n2CCCN(C)C)CCCC3 [SK50, 6-(3-(dimethylamino)propyl)-9-methoxy-2,3,4,6-tetrahydro-1H-indolo[2,3-b]quinolin-11-amine] | strong inhibitory activity; also recorded: specific inhibitory activities
Cc1ccc2c(c1)c1c(N)c3c(nc1n2CCCN(C)C)CCCC3 [SK58, 6-(3-(dimethylamino)propyl)-9-methyl-2,3,4,6-tetrahydro-1H-indolo[2,3-b]quinolin-11-amine] | strong inhibitory activity; also recorded: specific inhibitory activities
COC(=O)c1ccc2c(c1)c1c(N)c3c(nc1n2CCCN(C)C)CCCC3 [SK64, Methyl 11-amino-6-(3-(dimethylamino)propyl)-2,3,4,6-tetrahydro-1H-indolo[2,3-b]quinolin-9-carboxylate] | strong inhibitory activity; also recorded: specific inhibitory activities
